Test results reported in patent publication US20140057842A1, “COMPOSITIONS AND METHODS FOR CELL HOMING AND ADIPOGENESIS” (The Trustees of Columbia University in the City of New York, priority 2010, published 2014).

Legend:
[1] = test system: adipocyte stem cells (ASCs); assay: Adipogenesis of adipocyte stem cells treated with EGFR antagonist (marker expression, glycerol and leptin contents); assay type: cell-based; conditions: 50 ng/mL in adipogenic medium
Description: Together, the adipogenic differentiation capacity of ASCs was restored to a similar level to without HSC co-culture.

hADSCs [2] = assay: C/EBPα expression of hADSCs followed for 28 days; assay type: cell-based, human; conditions: ADM plus 2 μM Pyrintegrin, compared with ADM alone
Procedure: Change in C/EBPα expression of hADSCs were followed for 28 days. hADSCs were treated with: control medium; adipogenic differentiation medium (ADM); ADM plus 10 μM of Notch gamma Secretase Inhibitor (Inh1) (ADM+Inh1); ADM plus 10 μM of MAPK Inhibitor (Inh2) (ADM+Inh2); and ADM plus 10 μM of Inh1 and Inh2 (ADM+Inh1, 2).
C/EBPα expression was measured for 28 days in hADSCs treated with: control medium; adipogenic differentiation medium (ADM); and ADM plus 2 μM of Pyrintegrin (ADM+Pyrintegrin).

hADSCs [3] = assay: Leptin content of hADSCs at two and four weeks post-treatment; assay type: cell-based, human; conditions: ADM plus 2 μM Pyrintegrin
Procedure: At two and four weeks post-treatment, Leptin content was measured in hADSCs treated with: control medium; adipogenic differentiation medium (ADM); ADM plus 10 μM of Notch gamma Secretase Inhibitor (Inh1) (ADM+Inh1); ADM plus 10 μM of MAPK Inhibitor (Inh2) (ADM+Inh2); and ADM plus 10 μM of Inh1 and Inh2 (ADM+Inh1, 2).
At two and four weeks post-treatment, Leptin content was measured in hADSCs treated with: control medium; adipogenic differentiation medium (ADM); and ADM plus 2 μM of Pyrintegrin (ADM+Drug).

hADSCs [4] = assay: Adiponectin content of hADSCs at two and four weeks post-treatment; assay type: cell-based, human; conditions: ADM plus 2 μM Pyrintegrin
Procedure: At two and four weeks post-treatment, Adiponectin content was measure in hADSCs treated with: control medium; adipogenic differentiation medium (ADM); ADM plus 10 μM of Notch gamma Secretase Inhibitor (Inh1) (ADM+Inh1); ADM plus 10 μM of MAPK Inhibitor (Inh2) (ADM+Inh2), and ADM plus 10 μM of Inh1 and Inh2 (ADM+Inh1, 2).
At two and four weeks post-treatment, Adiponectin content was measured in hADSCs treated with: control medium; adipogenic differentiation medium (ADM); and ADM plus 2 μM of Pyrintegrin (ADM+Drug).

TGFβ/Activin pathway = assay: Western blot analysis of hADSCs 1-hour post-treatment, TGFβ/Activin pathway; assay type: cell-based, human; conditions: 2 μM with ADM or alone
Procedure: (§1) Western blot analysis was performed 1-hour post-treatment in hADSCs treated with: control medium (Control); adipogenic differentiation medium (ADM); ADM plus 2 μM of Pyrintegrin (ADM+Drug); and Pyrintegrin alone (Drug).

hADSCs [5] = assay: Glycerol content of hADSCs at two and four weeks post-treatment; assay type: cell-based, human; conditions: ADM plus 2 μM Pyrintegrin
Procedure: At two and four weeks post-treatment, Glycerol content was measured in hADSCs treated with: control medium; adipogenic differentiation medium (ADM); and ADM plus 2 μM of Pyrintegrin (ADM+Drug).

hADSCs [6] = assay: PPARγ expression of hADSCs followed for 28 days; assay type: cell-based, human; conditions: ADM plus 2 μM Pyrintegrin, compared with ADM alone
Procedure: Change in PPARγ expression of hADSCs were followed for 28 days. hADSCs were treated with: control medium; adipogenic differentiation medium (ADM); ADM plus 10 μM of Notch gamma Secretase Inhibitor (Inh1) (ADM+Inh1); ADM plus 10 μM of MAPK Inhibitor (Inh2) (ADM+Inh2); and ADM plus 10 μM of Inh1 and Inh2 (ADM+Inh1, 2).
PPARγ expression was measured for 28 days in hADSCs treated with: control medium; adipogenic differentiation medium (ADM); and ADM plus 2 μM of Pyrintegrin (ADM+Pyrintegrin).

BMP pathway = assay: Western blot analysis of hADSCs 1-hour post-treatment, phosphorylation of Smad1/5/8; assay type: cell-based, human; conditions: 2 μM with ADM or alone
Procedure: as §1

hADSCs [7] = assay: Lipid staining / brightfield images of hADSCs four weeks post-treatment; assay type: cell-based, human; conditions: ADM plus Pyrintegrin, compared with ADM alone
Procedure: Brightfield images were produced four weeks post-treatment of hADSCs with: (A) ADM; (B) ADM+Inh1; (C) ADM+Inh2; and (D) ADM+Inh1, 2 (see e.g., FIG. 6 A-D).
Lipid staining was performed four weeks post-treatment of hADSCs with: (A) ADM; and (B) ADM plus Pyrintegrin (ADM+Pyrintegrin).

hADSCs [8] = assay: PPARγ and C/EBPα gene expression of hADSCs four days post-treatment with Pyrintegrin without ADM; assay type: cell-based, human; conditions: control medium plus 2 μM or 10 μM Pyrintegrin
Procedure: PPARγ and C/EBPα gene expression was measured at four days post-treatment in hADSCs treated with: control medium (Control); control medium plus 2 μM of Pyrintegrin (Control+Drug 2 μM); control medium plus 10 μM of Pyrintegrin (Control+Drug 10 μM) and adipogenic medium (ADM).

| Compound | adipogenesis of ASCs on addition of EGF to the adipogenic medium [1] | C/EBPα expression in hADSCs (hADSCs [2]) | secretion of Leptin cytokine by hADSCs (hADSCs [3]) | secretion of Adiponectin cytokine by hADSCs (hADSCs [4]) | TGFβ/Activin pathway inhibition (TGFβ/Activin pathway) | secretion of Glycerol by hADSCs (hADSCs [5]) | PPARγ expression in hADSCs (hADSCs [6]) | phosphorylation of Smad1/5/8 (BMP pathway) (BMP pathway) | lipid accumulation in hADSCs (hADSCs [7]) | adipogenic differentiation of hADSCs (PPARγ and C/EBPα gene expression) (hADSCs [8]) |
| --- | --- | --- | --- | --- | --- | --- | --- | --- | --- | --- |
| EGF: EGF added at 50 ng/mL to the adipogenic medium (NSDSECPLSHDGYCLHDGVCMYIEALDKYACNCVVGYIGERCQYRDLKWWELR; UniProt P01133 971-1023, looked up) | further inhibited adipogenesis | – | – | – | – | – | – | – | – | – |
| O=S(=O)(NCC1CC1)c1ccc(Nc2nccc(N3CCCc4cc(O)ccc43)n2)cc1 [Pyrintegrin, N-(Cyclopropylmethyl)-4-(4-(6-hydroxy-3,4-dihydroquinolin-1-(2H)-yl)pyrimidin-2-ylamino)benzenesulfonamide] | – | more potent in inducing C/EBPα expression | enhanced the secretion of Leptin cytokine | enhanced the secretion of Adiponectin cytokine | does not target the TGFβ/Activin pathway | enhanced the secretion of Glycerol | more potent in inducing PPARγ expression | prevents the phosphorylation of Smad1/5/8 | more potent in inducing lipid accumulation | can induce hADSCs towards an adipogenic differentiation pathway |
